These results are taken from patent US5491169A, “Amino acid derivatives and their therapeutical applications” (priority 1989, dated 1996).

SMILES strings stand for the structures. pIC50: −log10 of the molar value.

Assay [1] concerns the target T1, purified porcine kidney aminopeptidase N (Sus scrofa, UniProt P15145).
T1 construct: purchased Boehringer, France; host or cells: porcine kidney
T1 sequence (P15145 1-963): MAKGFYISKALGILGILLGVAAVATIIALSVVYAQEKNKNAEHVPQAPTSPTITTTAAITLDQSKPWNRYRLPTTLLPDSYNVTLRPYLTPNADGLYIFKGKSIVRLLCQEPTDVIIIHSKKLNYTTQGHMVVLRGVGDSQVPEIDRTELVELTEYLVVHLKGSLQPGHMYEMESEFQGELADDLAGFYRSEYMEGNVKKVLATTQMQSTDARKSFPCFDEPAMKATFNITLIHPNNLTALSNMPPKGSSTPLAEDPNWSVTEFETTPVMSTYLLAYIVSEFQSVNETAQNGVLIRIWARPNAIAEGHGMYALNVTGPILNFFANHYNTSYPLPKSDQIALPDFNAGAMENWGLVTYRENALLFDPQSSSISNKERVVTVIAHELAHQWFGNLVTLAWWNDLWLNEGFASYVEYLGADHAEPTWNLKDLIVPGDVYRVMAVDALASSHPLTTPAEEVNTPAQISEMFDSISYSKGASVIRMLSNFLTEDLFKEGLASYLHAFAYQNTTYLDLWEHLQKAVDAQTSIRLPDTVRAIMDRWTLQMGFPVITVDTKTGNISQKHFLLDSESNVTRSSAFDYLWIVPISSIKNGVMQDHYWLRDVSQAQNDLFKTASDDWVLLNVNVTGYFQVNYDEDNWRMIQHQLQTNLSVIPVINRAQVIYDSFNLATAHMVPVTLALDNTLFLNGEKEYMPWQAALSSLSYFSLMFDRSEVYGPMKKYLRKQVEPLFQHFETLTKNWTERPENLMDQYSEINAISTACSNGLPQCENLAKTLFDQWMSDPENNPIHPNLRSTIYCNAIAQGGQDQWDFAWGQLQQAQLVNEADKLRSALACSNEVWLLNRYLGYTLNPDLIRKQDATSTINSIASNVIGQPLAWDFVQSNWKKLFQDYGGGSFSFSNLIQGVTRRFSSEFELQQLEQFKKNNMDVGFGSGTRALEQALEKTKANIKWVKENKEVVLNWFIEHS
Put plainly: In vitro inhibitory potency against aminopeptidase N. It counts as biochemical. Conditions: purified porcine kidney enzyme, (3H)-Leu5-enkephalin, DTT. The method, then: (§1) The biological activity relates to the inhibition of purified aminopeptidase N and of purified neutral endopeptidase.
(§2) 1) In vitro inhibition of enkephalinase activities.
b) Inhibitory potency against aminopeptidase N
The inhibitory power is measured on purified porcine kidney aminopeptidase (Boehringer, France). The assay is performed in a manner identical to the above, using (^3 H)-Leu^5 -enkephalin as a substrate. The metabolite formed, (^3 H)-Tyr, is separated by chromatography on a Porapak column, and the quantity formed measured using a liquid scintillation counter.

Assay [2] concerns the target T2, purified rabbit kidney neutral endopeptidase (Oryctolagus cuniculus, UniProt P08049).
T2 construct: from tissue; host or cells: rabbit kidney (purified enzyme)
T2 sequence (P08049 1-750): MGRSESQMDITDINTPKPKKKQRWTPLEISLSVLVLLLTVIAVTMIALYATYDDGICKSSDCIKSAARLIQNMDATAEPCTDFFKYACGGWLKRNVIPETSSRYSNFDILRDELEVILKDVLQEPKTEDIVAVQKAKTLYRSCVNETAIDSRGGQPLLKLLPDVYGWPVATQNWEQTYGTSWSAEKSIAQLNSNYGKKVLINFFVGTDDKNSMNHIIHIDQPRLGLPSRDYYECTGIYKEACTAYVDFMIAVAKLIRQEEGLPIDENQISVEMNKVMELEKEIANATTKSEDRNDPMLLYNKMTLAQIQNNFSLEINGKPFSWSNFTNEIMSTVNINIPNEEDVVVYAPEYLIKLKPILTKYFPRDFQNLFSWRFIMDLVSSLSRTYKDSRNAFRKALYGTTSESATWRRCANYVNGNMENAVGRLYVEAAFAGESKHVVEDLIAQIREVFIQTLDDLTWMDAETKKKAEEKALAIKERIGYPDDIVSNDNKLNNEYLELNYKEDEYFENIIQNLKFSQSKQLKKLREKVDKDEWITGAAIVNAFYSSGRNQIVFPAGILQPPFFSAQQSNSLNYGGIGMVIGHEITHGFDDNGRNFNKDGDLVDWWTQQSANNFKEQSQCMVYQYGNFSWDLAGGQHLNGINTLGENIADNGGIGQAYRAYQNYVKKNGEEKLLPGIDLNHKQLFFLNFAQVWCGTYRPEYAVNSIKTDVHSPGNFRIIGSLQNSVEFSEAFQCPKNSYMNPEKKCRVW
In words: In vitro inhibitory potency against neutral endopeptidase. The format is biochemical. Conditions: purified rabbit kidney enzyme, (3H)-D-Ala2-Leu5-enkephalin, 25° C., pH 7.4, DTT 100 equivalents. The procedure: as §1, §2
a) Inhibitory potency against neutral endopeptidase
The inhibitory power is determined on purified rabbit kidney neutral endopeptidase following the protocol described in the literature (Blumberg et al. Life Sci. (1981) 28, 301). After a preincubation for 15 minutes at 25° C., an aliquot of proteins is incubated for 20 minutes at 25° C. in the presence of 20 nmol of (^3 H)-D-Ala^2 -Leu^5 -enkephalin and the test compound in solution in Tris-HCl buffer (pH 7.4) in the presence of dithiothreitol DTT (100 equivalents relative to the inhibitor). The reaction is stopped by adding 0.2 N HCl. The tritiated metabolite (^3 H)-Tyr-D-Ala-Gly is separated from the D-Ala^2 -Leu^5 -enkephalin by chromatography on a Porapak column, and the quantity formed measured using a liquid scintillation counter.
The activity of the different compounds is expressed as 50% inhibitory concentrations (IC50), and the results are summarized in Table II.

Assay [3] is described as follows: Hot plate test, i.v. The format is in vivo. Conditions: Mus musculus, iv, mice, hot plate 55° C., Table III 50% analgesia. The method, then:
(§3) 1) Hot .plate test: This involves the licking and jumping reflex of the mouse on a plate heated to 55° C., according to the method of Jacob et al (Arch Int. Pharmacodyn. 122 287, 1959; 1961).
1.1. Administered i.v. (100 μl in tail vein) in mice, the compounds tested display a characteristic effect both on the latency time of jumping and on latency time of licking. These effects are antagonized by naloxone (0.5 mg/kg s.c.).
The results are expressed in Table III as a % analgesia. The percentage analgesia is expressed for each dose of compound tested by the following formula: [formula]
In general terms: Hot-plate and tail-flick tests time the reaction to a heat stimulus.

Assay [4] can be described thus: Hot plate test, i.p. The format is in vivo. Conditions: mice. The procedure:
as §3
1.2 Administered i.p. in mice, the test compounds display a characteristic effect on the times of restraint of jumping and of licking. These effects are antagonized by naloxone (0.5 mg/kg).

Assay [5] in a line: Tolerance after long-term administration, mice (% analgesia). It counts as in vivo. Conditions: mouse, s.c. four times per 24 h, compound 8 5 mg/kg, morphine 0.5 mg/kg. The procedure: (§4) e) Study of the tolerance and addiction effects induced by long-term administration of the compound of Example 8:
(§5) 1) The compound 8 is administered s.c. four times per 24 hours at a dose of 5 mg/kg for 6 days to mice and at 10 mg/kg to rats.
(§6) Morphine (hydrochloride) is administered under the same conditions (0.5 mg/kg in mice, 2 mg/kg in rats). The control animals receive only the vehicle.

Assay [6] in a line: Tolerance after long-term administration, rats (% analgesia). It counts as in vivo. Conditions: rat, s.c. four times per 24 h, compound 8 10 mg/kg, morphine 2 mg/kg, compound 7 dose not given. The procedure: as §4, §5, §6
Assay [7] in a line: Tail flick test (withdrawal of the tail), i.v. Conditions: rats, 10 mg/kg. It counts as in vivo. The procedure:
3) Test of withdrawal of the tail in rats: (tail flick test): administered i.v. in rats, the compounds according to the invention produce a significant extension of the time of withdrawal of the tail. These effects are antagonized by naloxone (0.5 mg/kg s.c.).
The results are expressed as a % analgesia for the same dose (10 mg/kg) of all the compounds tested.

Assay [8] in a line: Test on abdominal cramps induced by phenylbenzoquinone, i.v. It counts as in vivo. The method, then:
2) Test on abdominal cramps
(Hendershot and Forsaith. J. Pharmacol. (1975), 125, 237): This test measures the number of cramps induced by i.p. injection of 100 μl of a 0.02% solution of phenylbenzoquinone. The number of cramps is counted during 10 minutes, 10 minutes after the injection. Administered i.v., the compounds decrease the number of cramps.

Assay [9] has as its system cerebral NEP. In words: In vivo inhibition of cerebral NEP. Conditions: mice, i.v. The procedure:
2) "In vivo" inhibition of cerebral NEP
The enzymatic activity of cerebral NEP is compared in mice untreated or treated with a given dose of compound (approximately 2.5 mg/kg injected intravenously. The animals are sacrificed at variable times after injection of the inhibitor, and the NEP activity is determined in the brain by measuring the degradation of (^3 H)-D-Ala^2 -Leu^5 -enkephalin.
For the final compound of Example 1, injected at a dose of 2.7 μmol/kg (47.6 μg in 100 μl), the following results are obtained: […]

`CSCCC(N)CSSCC(Cc1ccccc1)C(=O)NC(C)C(=O)OCc1ccccc1` (stereo not shown) [Example 6]: the pIC50 (usually −log10 of the IC50, conventionally taken in molar units) in assay [1] is 8.70; in assay [2], 8.92.
Regarding `CC(NC(=O)C(CC[S+](C)[O-])CSSCC(N)CC[S+](C)[O-])C(=O)OCc1ccccc1` (stereo not shown) [Example 22], the ED50 – broadly, the midpoint of the dose-response relation – in assay [3] is 4.5 mg/kg. Further, the “dose in i.p. hot plate table” value in assay [4] is 6 mg/kg. The negative logarithm of the IC50 (pIC50) was 8.70 in [1] and 8.15 in [2].
For the compound `CN1CC[C@]23c4c5ccc(O)c4O[C@H]2[C@@H](O)C=C[C@H]3[C@H]1C5` [morphine, reference compound], the “% analgesia relative to the controls” value in assay [5] (day 0) was 100 ± 10%; in [5] (day 1), 60 ± 10%; in assay [5] (day 6), 0%; in assay [6] (day 0), 70 ± 12%; in [6] (day 1), 20 ± 3%; in assay [6] (day 6), 0%.
In the case of `C[S+]([O-])CCC(N)CSSCC(CC[S+](C)[O-])C(=O)NC(CC(=O)OCc1ccccc1)c1ccccc1` (stereo not shown) [Example 28], the median effective dose (ED50) in assay [3] is 4 mg/kg. For the same compound, the pIC50 is 8.70 in assay [1] and 8.52 in [2].
`CC(C)CC(N)CSSCC(Cc1ccccc1)C(=O)NC(C)C(=O)OCc1ccccc1` (stereo not shown) [Example 2]: the figures for the pIC50 in assay [1] and in assay [2] were 8.30 and 8.60, respectively.
Turning to `CC(C)CC(N)CSSCC(Cc1ccccc1)C(=O)NCC(=O)OCc1ccccc1` (stereo not shown) [Example 1], the “% analgesia (tail flick)” value in [7] came to 20%. The ED50 in [3] is 4 mg/kg. Further, the “dose in i.p. hot plate table” value in assay [4] was determined as 10 mg/kg. For the same compound, the “% analgesia (abdominal cramps)” value in assay [8] (1 mg/kg) is reported as 24.6% ± 8; in assay [8] (3 mg/kg), 46.9% ± 7.9; in assay [8] (9 mg/kg), 73.9% ± 8.2. For the same compound, the negative logarithm of the IC50 (pIC50) in [1] is 8.30; in assay [2] it was 8.70. Also, the “% inhibition cerebral NEP” value in assay [9] (2.7 μmol/kg (Example 7: same conditions), 60') was determined as 68 ± 4%; in assay [9] (2.7 μmol/kg (Example 7: same conditions), 120'), 63 ± 2%; in [9] (2.7 μmol/kg (Example 7: same conditions), 180'), 42 ± 16%; in [9] (2.7 μmol/kg, 15' (n = 4)), 96 ± 9%.
For the compound `C[S+]([O-])CCC(N)CSSCC(CC[S+](C)[O-])C(=O)NC1CCCCC1C(=O)OCc1ccccc1` (stereo not shown) [Example 32], in assay [7], the “% analgesia (tail flick)” value came to 36%. This compound showed an ED50 in [3] of 2 mg/kg. Further, the “dose in i.p. hot plate table” value in [4] worked out at 5.5 mg/kg. The results for the pIC50 in assay [1] and in assay [2] were 8.70 and 8.40, respectively.
With `CC(C)CC(N)CSSCC(Cc1ccccc1)C(=O)NC(Cc1ccccc1)C(=O)OCc1ccccc1` (stereo not shown) [Example 3], the pIC50 in [1] is 8.30; in [2], 8.92.
The corresponding values for `CC(C)CC(CSSCC(N)CC[S+](C)[O-])C(=O)NN1CCOCC1` (stereo not shown) [Example 33] are 8.70 and 8.30.
In assay [3], `C[S+]([O-])CCC(N)CSSCC(Cc1ccccc1)C(=O)NC1CCCCC1C(=O)OCc1ccccc1` (stereo not shown) [Example 26] registered a median effective dose (ED50) of 8 mg/kg. Further, the values for the negative-log IC50 (pIC50) in [1] and in [2] were 8.70 and 8.30, respectively.
On to `NC(CSSCC(Cc1ccccc1)C(=O)NCC(=O)OCc1ccccc1)Cc1ccccc1` (stereo not shown) [Example 4], for which the pIC50 in assay [1] was 8.10; in assay [2] it was 8.70.
